Structures can show the parent of a compound that is named as a salt.
target: T1, human MC2R (Homo sapiens, UniProt Q01718); assay: Measurement of human MC2R inhibitory activity using intracellular cAMP concentration as an indicator; type: cell-based; details: test compound at 1 µM; GeneBLAzer MC2R-CRE-bla CHO-K1 cells; ACTH (Human 1-24) final concentration 3 pM; intracellular cAMP by HTRF
T1 construct: host or cells: GeneBLAzer MC2R-CRE-bla CHO-K1 cells
Description: Experimental Example 1: Measurement of human MC2R inhibitory activity using intracellular cAMP concentration as an indicator
GeneBLAzer MC2R-CRE-bla CHO-K1 cells (Thermo Fisher Scientific) that had been cryopreserved in advance were thawed and suspended in a medium [Dulbecco's Modified Eagle Medium (Thermo Fisher Scientific) containing fetal bovine serum (10% (v/v), HyClone Laboratories), Non-Essential Amino Acids Solution (1/100 (w/w), Thermo Fisher Scientific), HEPES (25 mM, Thermo Fisher Scientific), Penicillin/Streptomycin (1/100 (w/w), Fujifilm Wako)]. After centrifuging the cell suspension, the supernatant was removed, the cells were suspended in D-PBS(-) (Fujifilm Wako), and the supernatant was removed again after centrifugation. The cells were resuspended in an assay buffer [Hank's Balanced Salt Solution (Thermo Fisher Scientific) containing HEPES pH 7.5 (10 mM, Thermo Fisher Scientific), fatty acid-free bovine serum albumin (0.01% (w/v), Sigma), IBMX (500 µM, Fujifilm Wako)] and added to a 384-well white plate (Greiner) at 1,500 cells/well. Then, the test compound prepared using the assay buffer was added, and after standing for 20 min, an assay buffer containing ACTH (Human 1-24) (Peptide Institute) was added (ACTH final concentration, 3 pM). After standing at room temperature for 30 min, the intracellular cAMP level was measured using cAMP Gs HiRange kit HTRF (PerkinElmer). The inhibition rate (%) of the compound against MC2R was calculated using the following formula. Inhibition rate (%) = […] [formula] • A: cAMP concentration calculated from wells containing 3 pM ACTH (1-24) • B: cAMP concentration calculated from wells without addition of 3 pM ACTH (1-24) • C: cAMP concentration calculated from wells containing 3 pM ACTH (1-24) and test compound at concentration determined in advance

T1 sequence (Q01718 whole entry): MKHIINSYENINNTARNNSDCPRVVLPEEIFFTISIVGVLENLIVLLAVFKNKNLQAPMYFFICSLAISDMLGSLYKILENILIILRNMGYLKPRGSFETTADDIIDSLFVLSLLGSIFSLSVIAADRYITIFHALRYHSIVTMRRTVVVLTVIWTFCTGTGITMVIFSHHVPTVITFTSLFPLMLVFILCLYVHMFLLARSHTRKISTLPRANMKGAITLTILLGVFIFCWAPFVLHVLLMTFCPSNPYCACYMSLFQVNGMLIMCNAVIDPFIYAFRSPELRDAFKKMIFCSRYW
T1 sequence (Q8TCY5 whole entry partner): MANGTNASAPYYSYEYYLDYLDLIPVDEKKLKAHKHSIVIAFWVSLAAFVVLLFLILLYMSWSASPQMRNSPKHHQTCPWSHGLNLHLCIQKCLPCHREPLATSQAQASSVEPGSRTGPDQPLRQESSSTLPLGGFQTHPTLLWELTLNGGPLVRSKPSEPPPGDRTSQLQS

| SMILES | MC2R inhibition rate (% of inhibition) [%] |
| --- | --- |
| CCOc1ncccc1-c1ccc(N2CCN3C(=O)N(c4ccc(Cl)cc4C(F)(F)F)C[C@@H]3C2)c(C(=O)NC2CCNC2)n1 (stereo partly drawn) [Example 24, 3-[(8aS)-2-[4-chloro-2-(trifluoromethyl)phenyl]-3-oxo-5,6,8,8a-tetrahydro-1H-imidazo[1,5-a]pyrazin-7-yl]-6-(2-ethoxypyridin-3-yl)-N-pyrrolidin-3-ylpyridine-2-carboxamide 2hydrochloride] | 100 |
| CCOc1ncccc1-c1ccc(N2CCN3C(=O)N(c4ccc(Cl)cc4C(F)(F)F)C[C@@H]3C2)c(C(=O)NCCC2CCNCC2)n1 [Example 25, 3-[(8aS)-2-[4-chloro-2-(trifluoromethyl)phenyl]-3-oxo-5,6,8,8a-tetrahydro-1H-imidazo[1,5-a]pyrazin-7-yl]-6-(2-ethoxypyridin-3-yl)-N-(2-piperidin-4-ylethyl)pyridine-2-carboxamide 2 hydrochloride] | 99 |

same assay, conditions: test compound at 1 µM; GeneBLAzer MC2R-CRE-bla CHO-K1 cells; ACTH (Human 1-24) final concentration 3 pM; intracellular cAMP by HTRF; read-out: MC2R inhibition rate (% of inhibition)

| inhibition at 1 µM [%] | SMILES |
| --- | --- |
| 82 | CCOc1ncccc1-c1ccc(N2CCN3C(=O)N(c4ccc(Cl)cc4C(F)(F)F)C[C@@H]3C2)c(C(=O)NCCC2CCN(C(=O)OC(C)(C)C)CC2)n1 [Example 21, tert-butyl 4-[2-[[3-[(8aS)-2-[4-chloro-2-(trifluoromethyl)phenyl]-3-oxo-5,6,8,8a-tetrahydro-1H-imidazo[1,5-a]pyrazin-7-yl]-6-(2-ethoxypyridin-3-yl)pyridine-2-carbonyl]amino]ethyl]piperidine-1-carboxylate] |
| 100 | CCOc1ncccc1-c1ccc(N2CCN3C(=O)N(c4ccc(Cl)cc4C(F)(F)F)C[C@@H]3C2)c(C(=O)NCCCn2cccn2)n1 [Example 22, 3-[(8aS)-2-[4-chloro-2-(trifluoromethyl)phenyl]-3-oxo-5,6,8,8a-tetrahydro-1H-imidazo[1,5-a]pyrazin-7-yl]-6-(2-ethoxypyridin-3-yl)-N-(3-pyrazol-1-ylpropyl)pyridine-2-carboxamide] |
| 100 | CCOc1ncccc1-c1ccc(N2CCN3C(=O)N(c4ccc(Cl)cc4C(F)(F)F)C[C@@H]3C2)c(C(=O)N[C@@H]2CCN(C)C2)n1 [Example 23, 3-[(8aS)-2-[4-chloro-2-(trifluoromethyl)phenyl]-3-oxo-5,6,8,8a-tetrahydro-1H-imidazo[1,5-a]pyrazin-7-yl]-6-(2-ethoxypyridin-3-yl)-N-[(3R)-1-methylpyrrolidin-3-yl]pyridine-2-carboxamide] |
| 100 | CCOc1ncccc1-c1ccc(N2C[C@H]3CN(c4ccc(Cl)cc4C(F)(F)F)C(=O)N3C[C@H]2CC)c(C(=O)NCCN(C)C)n1 [Example 26, 3-[(6R,8aS)-2-[4-chloro-2-(trifluoromethyl)phenyl]-6-ethyl-3-oxo-5,6,8,8a-tetrahydro-1H-imidazo[1,5-a]pyrazin-7-yl]-N-[2-(dimethylamino)ethyl]-6-(2-ethoxypyridin-3-yl)pyridine-2-carboxamide] |
| 100 | CCOc1ncccc1-c1ccc(N2C[C@H]3CN(c4ccc(Cl)cc4C(F)(F)F)C(=O)N3C[C@H]2CC)c(C(N)=O)n1 [Example 27, 3-[(6R,8aS)-2-[4-chloro-2-(trifluoromethyl)phenyl]-6-ethyl-3-oxo-5,6,8,8a-tetrahydro-1H-imidazo[1,5-a]pyrazin-7-yl]-6-(2-ethoxypyridin-3-yl)pyridine-2-carboxamide] |
| 100 | CCOc1ncccc1-c1ccc(N2C[C@H]3CN(c4ccc(Cl)cc4C(F)(F)F)C(=O)N3C[C@H]2CC)c(C(=O)NC2CNC(=O)C2)n1 (stereo partly drawn) [Example 29, 3-[(6R,8aS)-2-[4-chloro-2-(trifluoromethyl)phenyl]-6-ethyl-3-oxo-5,6,8,8a-tetrahydro-1H-imidazo[1,5-a]pyrazin-7-yl]-6-(2-ethoxypyridin-3-yl)-N-(5-oxopyrrolidin-3-yl)pyridine-2-carboxamide] |
| 100 | CCOc1ncccc1-c1ccc(N2C[C@H]3CN(c4ccc(Cl)cc4C(F)(F)F)C(=O)N3C[C@H]2CC)c(C(=O)NCC2(O)CC2)n1 [Example 32, 3-[(6R,8aS)-2-[4-chloro-2-(trifluoromethyl)phenyl]-6-ethyl-3-oxo-5,6,8,8a-tetrahydro-1H-imidazo[1,5-a]pyrazin-7-yl]-6-(2-ethoxypyridin-3-yl)-N-[(1-hydroxycyclopropyl)methyl]pyridine-2-carboxamide] |
| 100 | CCOc1ncccc1-c1ccc(N2C[C@H]3CN(c4ccc(Cl)cc4C(F)(F)F)C(=O)N3C[C@H]2CC)c(C(=O)NC[C@@H](C)O)n1 [Example 33, 3-[(6R,8aS)-2-[4-chloro-2-(trifluoromethyl)phenyl]-6-ethyl-3-oxo-5,6,8,8a-tetrahydro-1H-imidazo[1,5-a]pyrazin-7-yl]-6-(2-ethoxypyridin-3-yl)-N-[(2R)-2-hydroxypropyl]pyridine-2-carboxamide] |
| 100 | CCOc1ncccc1-c1ccc(N2C[C@H]3CN(c4ccc(Cl)cc4C(F)(F)F)C(=O)N3C[C@H]2CC)c(C(=O)NCC(C)(C)O)n1 [Example 35, 3-[(6R,8aS)-2-[4-chloro-2-(trifluoromethyl)phenyl]-6-ethyl-3-oxo-5,6,8,8a-tetrahydro-1H-imidazo[1,5-a]pyrazin-7-yl]-6-(2-ethoxypyridin-3-yl)-N-(2-hydroxy-2-methylpropyl)pyridine-2-carboxamide] |
| 100 | CCOc1ncccc1-c1ccc(N2C[C@H]3CN(c4ccc(Cl)cc4C(F)(F)F)C(=O)N3C[C@H]2CC)c(C(=O)NCCNC(C)=O)n1 [Example 36, N-(2-acetamidoethyl)-3-[(6R,8aS)-2-[4-chloro-2-(trifluoromethyl)phenyl]-6-ethyl-3-oxo-5,6,8,8a-tetrahydro-1H-imidazo[1,5-a]pyrazin-7-yl]-6-(2-ethoxypyridin-3-yl)pyridine-2-carboxamide] |
| 91 | CCOc1ncccc1-c1ccc(N2C[C@H]3CN(c4ccc(Cl)cc4C(F)(F)F)C(=O)N3C[C@H]2CC)c(C(=O)O)n1 [Example 38a, 3-[(6R,8aS)-2-[4-chloro-2-(trifluoromethyl)phenyl]-6-ethyl-3-oxo-5,6,8,8a-tetrahydro-1H-imidazo[1,5-a]pyrazin-7-yl]-6-(2-ethoxy-3-pyridyl)pyridine-2-carboxylic acid] |
| 100 | CCOc1ncccc1-c1ccc(N2C[C@H]3CN(c4ccc(Cl)cc4C(F)(F)F)C(=O)N3C[C@H]2CC)c(C(=O)N[C@@H]2CNC(=O)C2)n1 [Example 39, 3-[(6R,8aS)-2-[4-chloro-2-(trifluoromethyl)phenyl]-6-ethyl-3-oxo-5,6,8,8a-tetrahydro-1H-imidazo[1,5-a]pyrazin-7-yl]-6-(2-ethoxypyridin-3-yl)-N-[(3S)-5-oxopyrrolidin-3-yl]pyridine-2-carboxamide] |
| 100 | CCOc1ncccc1-c1ccc(N2C[C@H]3CN(c4ccc(Cl)cc4C(F)(F)F)C(=O)N3C[C@H]2CC)c(C(=O)N[C@H](C)C(=O)NC)n1 [Example 40, 3-[(6R,8aS)-2-[4-chloro-2-(trifluoromethyl)phenyl]-6-ethyl-3-oxo-5,6,8,8a-tetrahydro-1H-imidazo[1,5-a]pyrazin-7-yl]-6-(2-ethoxypyridin-3-yl)-N-[(2R)-1-(methylamino)-1-oxopropan-2-yl]pyridine-2-carboxamide] |
| 100 | CCOc1ncccc1-c1ccc(N2C[C@H]3CN(c4ccc(Cl)cc4C(F)(F)F)C(=O)N3C[C@H]2CC)c(C(=O)N[C@@H](C)C(=O)NC)n1 [Example 41, 3-[(6R,8aS)-2-[4-chloro-2-(trifluoromethyl)phenyl]-6-ethyl-3-oxo-5,6,8,8a-tetrahydro-1H-imidazo[1,5-a]pyrazin-7-yl]-6-(2-ethoxypyridin-3-yl)-N-[(2S)-1-(methylamino)-1-oxopropan-2-yl]pyridine-2-carboxamide] |
| 100 | CCOc1ncccc1-c1ccc(N2C[C@H]3CN(c4ccc(Cl)cc4C(F)(F)F)C(=O)N3C[C@H]2CC)c(C(=O)NC2CC(=O)N(C)C2)n1 (stereo partly drawn) [Example 42, 3-[(6R,8aS)-2-[4-chloro-2-(trifluoromethyl)phenyl]-6-ethyl-3-oxo-5,6,8,8a-tetrahydro-1H-imidazo[1,5-a]pyrazin-7-yl]-6-(2-ethoxypyridin-3-yl)-N-(1-methyl-5-oxopyrrolidin-3-yl)pyridine-2-carboxamide] |

| SMILES | inhibition at 1 µM [%] |
| --- | --- |
| CCOc1ncccc1-c1ccc(N2CCN3C(=O)N(c4ccc(Cl)cc4C(F)(F)F)C[C@@H]3C2)c(C(=O)NC2CCNC2)n1 (stereo partly drawn) [Example 28, 3-[(8aS)-2-[4-chloro-2-(trifluoromethyl)phenyl]-3-oxo-5,6,8,8a-tetrahydro-1H-imidazo[1,5-a]pyrazin-7-yl]-6-(2-ethoxypyridin-3-yl)-N-pyrrolidin-3-ylpyridine-2-carboxamide] | 100 |
